Experimental data: patent US20060264460A1 (Wyeth, priority 2005, published 2006)

These compounds were tested against T1, human Cot/Tpl2 kinase (Homo sapiens, UniProt P41279) (assay: Tpl2/Cot kinase assay: GST-MEK1 phosphorylation detected by ELISA (DELFIA Eu)). Conditions: 0.4 nM Tpl2, 35 nM GST-MEK1, 50 uM ATP, 1 h at 30° C.
T1 construct: human Cot/Tpl2 kinase construct encoding residues 30-398; 6His (N); made in house; host or cells: Sf9 insect cells, baculovirus system (BD Biosciences)
Type: biochemical
Description: Sf9 cells expressing the kinase were lysed in 50 mM NaPhosphate pH=8; 300 mM NaCl; 5 mM imidazole; 0.1 mM EGTA; 25 mM beta-glycerophosphate; 1% TX-100, 1% glycerol; 6 mM beta-mercaptoethanol and protease inhibitors. The lysate was clarified by centrifugation and was loaded onto a Ni-Sepharose column. The column was washed with 50 mM NaPhosphate pH=8; 300 mM NaCl; 15 mM imidazole; 1% glycerol; and 6 mM beta-mercaptoethanol. His-Tpl2 was eluted with 50 mM NaPhosphate pH=8; 300 mM NaCl; 250 mM imidazole; 1% glycerol; and 6 mM beta-mercaptoethanol. The eluted protein was further purified by size exclusion chromatography. Fractions corresponding to monomeric Tpl2 were then used in the assay.
Tpl2/Cot activity was directly assayed using GST-MEK1 as a substrate. GST-MEK1 phosphorylation on serine residues 217 and 221 was detected by ELISA. 0.4 nM Tpl2 was incubated with 35 nM GST-MEK1 in a kinase reaction buffer containing 20 mM MOPS pH=7.2; 50 uM ATP; 20 mM MgCl2; 1 mM DTT; 25 mM β-glycerophosphate; 5 mM EGTA; and 1 mM sodium orthovanadate for 1 h at 30° C. The compounds of the inventions solubilized in 100% DMSO were pre-diluted in assay buffer so that the final concentration of DMSO in the reaction was 1%. The kinase reaction was carried out in 100 ul volume on 96 well plates. The kinase reaction was then stopped with the addition of 100 mM EDTA. […] After a 1 hour incubation at room temperature, the detection plate was washed 4 times with TBST (TBS+0.05% Tween 20) and then incubated for another hour at room temperature with anti phospho-MEK1 antibody (Cell Signaling) 1:1000 in 10 mM MOPS 7.5; 150 mM NaCl; 0.05% Tween 20; 0.1% Gelatin; 0.02% NaN3; and 1% BSA. The detection plate was washed again and incubated for 30 min with DELFIA Europium (Eu) labeled goat anti-rabbit IgG (Perkin-Elmer), 1:4000 in the same buffer used for the primary incubation. After a final wash, Eu detection solution was added to each well and the Eu signal was measured in a Wallac Victor^2 Multilabel Counter. IC50 calculations were performed using the XLfit software package (IDBS, Guildford, UK).

T1 sequence (P41279 30-398): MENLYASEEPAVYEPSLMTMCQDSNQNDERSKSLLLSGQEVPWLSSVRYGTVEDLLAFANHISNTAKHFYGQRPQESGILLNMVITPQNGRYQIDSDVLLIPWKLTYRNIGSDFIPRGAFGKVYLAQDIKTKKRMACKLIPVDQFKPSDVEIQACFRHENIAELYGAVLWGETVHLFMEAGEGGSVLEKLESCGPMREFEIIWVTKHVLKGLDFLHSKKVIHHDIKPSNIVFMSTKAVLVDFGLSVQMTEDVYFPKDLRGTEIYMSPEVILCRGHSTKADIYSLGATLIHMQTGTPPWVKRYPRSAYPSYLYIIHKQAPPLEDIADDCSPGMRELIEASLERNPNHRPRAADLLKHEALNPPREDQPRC

Structure (SMILES)	IC50
COc1cc(NCc2cccnc2)cc2c(Nc3ccc(F)c(Cl)c3)c(C#N)cnc12 [Example 28, 4-(3-Chloro-4-fluoro-phenylamino)-8-methoxy-6-[(pyridin-3-ylmethyl)-amino]-quinoline-3-carbonitrile]	1.1 µM
COc1cc(NCCN2CCOCC2)cc2c(Nc3ccc(F)c(Cl)c3)c(C#N)cnc12 [Example 29, 4-(3-Chloro-4-fluoro-phenylamino)-8-methoxy-6-(2-morpholin-4-yl-ethylamino)-quinoline-3-carbonitrile]	5.2 µM
COc1cc(NCc2cccnc2)cc2c(Nc3ccc(C)c(O)c3)c(C#N)cnc12 [Example 32, 4-(3-Hydroxy-4-methyl-phenylamino)-8-methoxy-6-[(pyridin-3-ylmethyl)-amino]-quinoline-3-carbonitrile]	> 40 µM
N#Cc1cc(CNc2ccc3ncc(C#N)c(Nc4ccc(F)c(Cl)c4)c3c2)ccc1OCC(=O)O [Example 34, (4-{[4-(3-Chloro-4-fluoro-phenylamino)-3-cyano-quinolin-6-ylamino]-methyl}-2-cyano-phenoxy)-acetic acid]	0.26 µM
N#Cc1cnc2ccc(NCc3c[nH]nc3-c3cccs3)cc2c1Nc1ccc(F)c(Cl)c1 [Example 35, 4-(3-Chloro-4-fluoro-phenylamino)-6-[(3-thiophen-2-yl-1H-pyrazol-4-ylmethyl)-amino]-quinoline-3-carbonitrile]	1.8 µM
CC(C)(C)OC(=O)N1CCC[C@H]1CNc1ccc2ncc(C#N)c(Nc3ccc(F)c(Cl)c3)c2c1 [Example 40, 2-{[4-(3-Chloro-4-fluoro-phenylamino)-3-cyano-quinolin-6-ylamino]-methyl}-L-pyrrolidine-1-carboxylic acid tert-butyl ester]	2.4 µM
CC(C)(C)OC(=O)COc1ccc(Br)cc1CNc1ccc2ncc(C#N)c(Nc3ccc(F)c(Cl)c3)c2c1 [Example 42]	26.8 µM
N#Cc1cnc2ccc(NC[C@@H]3CCCN3)cc2c1Nc1ccc(F)c(Cl)c1 [Example 43, 4-(3-Chloro-4-fluoro-phenylamino)-6-[(L-pyrrolidin-2-ylmethyl)-amino]-quinoline-3-carbonitrile]	15.3 µM

Continued, values first:

IC50	Structure (SMILES)
0.13 µM	N#Cc1cnc2ccc(NCc3ccc[n+]([O-])c3)cc2c1Nc1ccc(F)c(Cl)c1 [Example 30, 4-(3-Chloro-4-fluoro-phenylamino)-6-[(1-oxy-pyridin-3-ylmethyl)-amino]-quinoline-3-carbonitrile]
0.11 µM	Cc1cc(CNc2ccc3ncc(C#N)c(Nc4ccc(F)c(Cl)c4)c3c2)n[nH]1 [Example 31, 4-(3-Chloro-4-fluoro-phenylamino)-6-[(5-methyl-1 H-pyrazol-3-ylmethyl)-amino]-quinoline-3-carbonitrile]
0.2 µM	Cc1cc(CNc2ccc3ncc(C#N)c(Nc4ccc(F)c(Cl)c4)c3c2)n(C)n1 [Example 33, 4-(3-Chloro-4-fluoro-phenylamino)-6-[(2,5-dimethyl-2H-pyrazol-3-ylmethyl)-amino]-quinoline-3-carbonitrile]
0.63 µM	N#Cc1cnc2ccc(NCc3ccccc3)cc2c1Nc1ccc(F)c(Cl)c1 [Example 36, 6-Benzylamino-4-(3-chloro-4-fluoro-phenylamino)-quinoline-3-carbonitrile]
0.41 µM	N#Cc1cnc2ccc(NCc3cccnc3)cc2c1Nc1ccc(F)c(Cl)c1 [Example 37, 4-(3-Chloro-4-fluoro-phenylamino)-6-[(pyridin-3-ylmethyl)-amino]-quinoline-3-carbonitrile]
2.6 µM	Cc1nn(C)c(N2CCOCC2)c1CNc1ccc2ncc(C#N)c(Nc3ccc(F)c(Cl)c3)c2c1 [Example 38, 4-(3-Chloro-4-fluoro-phenylamino)-6-[(1,3-dimethyl-5-morpholin-4-yl-1H-pyrazol-4-ylmethyl)-amino]-quinoline-3-carbonitrile]
0.011 µM	N#Cc1cnc2ccc(NCc3cccc[n+]3[O-])cc2c1Nc1ccc(F)c(Cl)c1 [Example 39, 4-(3-Chloro-4-fluoro-phenylamino)-6-[(1-oxy-pyridin-2-ylmethyl)-amino]-quinoline-3-carbonitrile]
